In patent publication US10272117B2, “Methods of using an activator of cereblon for neural cell expansion and the treatment of central nervous system disorders” (Celgene Corporation, priority 2014, dated 2019):

Test system: zebrafish embryos
Experiment: Quantitative PCR of gene expression in zebrafish embryos
Type: in vivo
Description: BRD7-knockdown zebrafish embryos show similar phenotypes as CRBN-overexpressing zebrafish embryos. For example, expression of HuC in untreated, CRBN-overexpressing, and BRD7-knockdown zebrafish embryos was compared by quantitative PCR. Quantitative PCR was performed as follows: 1.7 μg of random […] and oligo-dT primed cDNA synthesized by ReverTra Ace qPCR RT Kit (TOYOBO, Japan) (as template) were used for reverse transcription by THUNDERBIRD™ SYBR® qPCR Mix (Toyobo, Japan). 0.25 mM of each forward and reverse primers were used in the reaction, wherein the sequence of the forward primer was 5′-[…]-3′ (SEQ ID NO: 9); and the sequence of the reverse primer was 5′-[…]-3′ (SEQ ID NO: 10).
Expression of Pou5f1 (Oct3/4), c-Myc, Sox2, and Nanog in zebrafish embryos was analyzed by quantitative PCR. Quantitative RT (qRT)-PCR was performed as follows: 1.7 μg of random hexamer and oligo-dT primed cDNA synthesized by ReverTra Ace qPCR RT Kit (TOYOBO, Japan) (as template) were used for reverse transcription by THUNDERBIRD™ SYBR® qPCR Mix (Toyobo, Japan). 0.25 mM of each forward and reverse primers was used in the reaction. The sequences of primers for c-Myc are as follows: forward primer is 5′-[…]-3′ (SEQ ID NO: 15), and reverse primer is 5′-GTAAAACGACGGCCAGT-3′ (SEQ ID NO: 16). The sequences of primers for sox2 are as follows: forward primer is 5′-ACCCCGGAGGAAAACCAA-3′ (SEQ ID NO: 17), and reverse primer is 5′-CCCGGCAGGGTGTACTTG-3′ (SEQ ID NO: 18). The sequences of primers for nanog are as follows: forward primer is 5′-TACCCAACACACCAGCTTC-3′ (SEQ ID NO: 19), and reverse primer is 5′-GAAGGGTGTTTTTGGAGGA-3′ (SEQ ID NO: 20).
Expression of a pool of three genes, Ascl1, Brn2 (Pou3f2), and Myt1la, is sufficient to directly reprogram embryonic and postnatal fibroblasts into functional neurons. See, e.g., Vierbuchen and Wernig, Nat Biotechnol. 29:892-907 […]. […] Primer sequences for amplification for Ascl1a are as follows: forward primer is 5′-ACGAGCATGACGCCGTA-3′ (SEQ ID NO: 21), and reverse primer is 5′-[…]-3′ (SEQ ID NO: 22). Primer sequences for amplification for Pou3f2b are as follows: forward primer is 5′-[…]-3′ (SEQ ID NO: 23), and reverse primer is 5′-[…]-3′(SEQ ID NO: 24). Primer sequences for amplification for Myt1la are as follows: forward primer is 5′-[…]-3′ (SEQ ID NO: 25), and reverse primer is 5′-[…]-3′ (SEQ ID NO: 26). FIG. […]
Notch3 and Neuropilin2b (Nrp2b) are required for cell proliferation progression. Notch3 regulates the timing of neural differentiation from undifferentiated or immature cells, and Nrp2b regulates cell proliferation and remodeling in mesenchymal stem cells by cooperating with PDGF (platelet-derived growth factor). Therefore, expression of Notch3 and Neuropilin 2b (Nrp2b) was analyzed in untreated and CRBN-overexpressing zebrafish embryos by quantitative PCR. The primers used for Notch3 are as follows: the sequence for forward primer is 5′-[…]-3′ (SEQ ID NO: 27), and the sequence for reverse primer is 5′-[…]-3′ (SEQ ID NO: 28). The primers used for Nrp2b are as follows: the sequence of forward primer is 5′-[…]-3′ (SEQ ID NO: 29), and the sequence of reverse primer is 5′-[…]-3′ (SEQ ID NO: 30). FIG. 29A is a histogram showing the mRNA level of Notch3 and Nrp2b in untreated, CRBN-overexpressing, and thalidomide-treated zebrafish embryos at 11 hpf by quantitative PCR. As shown, expression of Notch3 in the CRBN-overexpressing embryos increased to 1.8-fold of the level in the untreated embryos at 11 hpf, and expression of Nrp2b in the CRBN-overexpressing embryos increased to 2.7-fold of the level in the untreated embryos at the same stage.
Elval3 (Huc) is a neural progenitor marker. Expression of Elavl3 (Huc) was also analyzed by quantitative PCR and in situ hybridization. […]

[1] = 11 hpf, compared to untreated embryos

Substance	expression of Nanog (change) (11 hpf, FIG. 13)	expression of Pou5f1 (change) (11 hpf, FIG. 13)	expression of Zic3 (change) (11 hpf, FIG. 13)	Nanog expression [1]	Pou5f1 expression [1]	Sox2 expression [1]	Zic3 expression [1]	expression of Ascl1a (change) (23 hpf)	expression of Pou3f2b (change) (23 hpf)	expression of Ascl1 (change) (11 hpf)	expression of Brn2 (Pou3f2b) (change) (11 hpf)	expression of Myt1l (change) (11 hpf)	HuC (Elavl3) expression level (11 hpf, fold of level in untreated embryos)	expression of Ascl1 (change) (28 hpf)	expression of Myt1la (change) (28 hpf)	expression of Pou3f3a (change) (28 hpf)	expression of Nanog (change) (28 hpf)	expression of Pou3f2b (change) (28 hpf)	expression of Sox2 (change) (28 hpf)	expression of c-Myc (change) (28 hpf)
5′-AGAGCTGTAGCTGGTTCCCCATTTC-3′ (all phosphorodiamidate morpholino (PMO)) [CRBN-knockdown, 25-mer antisense morpholino oligonucleotide (AMO) used for the CRBN gene knockdown, reference compound]	decreased	decreased	decreased	0.8 fold	0.8 fold	0.7 fold	0.8 fold	decreased	decreased	–	–	–	–	–	–	–	–	–	–	–
5′-TGTGTTTCTTGTGCTTTTTGCCCAT-3′ (all phosphorodiamidate morpholino (PMO)) [BRD7-knockdown, 25-mer antisense morpholino oligonucleotide (AMO) used for the BRD7 gene knockdown]	increased	significantly increased	increased	–	–	–	–	–	–	increased	increased	increased	1.7 fold	increased	increased	increased	–	–	–	–
5′-TTCCTGTGCCTCCTCAGTCTCCATC-3′ (all phosphorodiamidate morpholino (PMO)) [Ikaros-knockdown, 25-mer antisense morpholino oligonucleotide (AMO) used for the Ikaros gene knockdown]	–	–	–	–	–	–	–	increased	increased	–	–	–	–	increased	increased	increased	activated	increased	activated	activated
